Measurements reported in patent US8883829B2, “2-phenyl-1,2,3-benzotriazoles for UV radiation absorbance” (DSM IP Assets B.V., priority 2010, dated 2014).
Read-outs that look alike come from different tables or passages of the source.

How the values were obtained:
[1] = Determination of the solubility in cosmetic solvents; conditions: saturated solution stirred 7 days at room temperature, HPLC; for solubility Finsolv TN: C12-15 Alkylbenzoate; for solubility Myritol 318: Capric/Caprylic Triglyceride
Description: (§1) 1.5 g of a cosmetic solvent (Capric/Caprylic Triglyceride (Mygliol 318) and C12-15 Alkylbenzoate (Finsolv TN)) is saturated with the respective Benzotriazol-derivative by adding 0.2 g portions while stirring at room temperature. The saturated solution is stirred for 7 days at room temperature. 1 ml of the supernatant is centrifuged and filtered in order to obtain a clear solution. The concentration of the Benzotriazol-derivative is determined by means of HPLC.

[2] = 7 days
Description: as §1

| solubility Finsolv TN [1] [%] | solubility Myritol 318 [1] [%] | SMILES | solubility Finsolv TN [2] [%] | solubility Myritol 318 [2] [%] |
| --- | --- | --- | --- | --- |
| 19 | 12 | CCCCC(CC)COCc1cc(C)cc(-n2nc3ccc(Cl)cc3n2)c1O (stereo not drawn) [Example 12, 2-(5-Chloro-benzotriazol-2-yl)-6-(2-ethylhexyloxymethyl)-4-methyl-phenol] | – | – |
| 8 | 6 | Cc1cc(COC(=O)CC(C)C)c(O)c(-n2nc3ccccc3n2)c1 [Example 9, 3-Methyl-butyric acid 3-(2H-benzotriazol-2-yl)-2-hydroxy-5-methyl-benzyl ester] | – | – |
| 42 | 24 | CCCCC(CC)C(=O)OCc1cc(C)cc(-n2nc3ccccc3n2)c1O (stereo not drawn) [Example 8, 2-Ethyl-hexanoic acid 3-(2H-benzotriazol-2-yl)-2-hydroxy-5-methyl-benzyl ester] | – | – |
| – | – | CCCCC(CC)COCc1cc(C)cc(-n2nc3ccccc3n2)c1O (stereo not drawn) [Example 2, 2-(2H-Benzotriazol-2-yl)-6-(2-ethylhexyloxymethyl)-4-methyl-phenol] | 64 | 66 |
| 0.02 | 0.01 | Cc1cc(CO)c(O)c(-n2nc3ccccc3n2)c1 [Example 14, 2-(2H-Benzotriazol-2-yl)-6-hydroxymethyl-4-methyl-phenol] | – | – |

| SMILES | solubility Finsolv TN [1] [%] | solubility Myritol 318 [1] [%] | solubility Finsolv TN [2] [%] | solubility Myritol 318 [2] [%] |
| --- | --- | --- | --- | --- |
| Cc1cc(COCCC(C)C)c(O)c(-n2nc3ccccc3n2)c1 [Example 6, 2-(2H-Benzotriazol-2-yl)-6-(3-methyl-butoxymethyl)-4-methyl-phenol] | 37 | 36 | – | – |
